Like-named read-outs stand apart in the source and are kept apart here.
Assays:
[1] = system: MDA-MB-468; assay: NCI-60 growth inhibition: MDA-MB-468 (Breast Cancer); assay type: cell-based, human; conditions: MDA-MB-468 (Breast Cancer), read-out: GI50
[2] = system: SK-MEL-28; assay: NCI-60 growth inhibition: SK-MEL-28 (Melanoma); assay type: cell-based, human
[3] = system: SNB-19; assay: NCI-60 growth inhibition: SNB-19 (CNS Cancer); assay type: cell-based, human
[4] = system: MDA-MB-435; assay: NCI-60 growth inhibition: MDA-MB-435 (Melanoma); assay type: cell-based, human
[5] = system: HOP-92; assay: NCI-60 growth inhibition: HOP-92 (Non-Small-Cell Lung Cancer); assay type: cell-based, human
[6] = system: BT-549; assay: NCI-60 growth inhibition: BT-549 (Breast Cancer); assay type: cell-based, human
[7] = system: UO-31; assay: NCI-60 growth inhibition: UO-31 (Renal Cancer); assay type: cell-based, human
[8] = system: LOX IMVI; assay: NCI-60 growth inhibition: LOX IMVI (Melanoma); assay type: cell-based, human
[9] = system: TK-10; assay: NCI-60 growth inhibition: TK-10 (Renal Cancer); assay type: cell-based, human
[10] = system: HL-60(TB); assay: NCI-60 growth inhibition: HL-60(TB) (Leukemia); assay type: cell-based, human; conditions: HL-60(TB) (Leukemia), read-out: GI50
[11] = system: SW-620; assay: NCI-60 growth inhibition: SW-620 (Colon Cancer); assay type: cell-based, human
[12] = system: OVCAR-3; assay: NCI-60 growth inhibition: OVCAR-3 (Ovarian Cancer); assay type: cell-based, human
[13] = system: UACC-257; assay: NCI-60 growth inhibition: UACC-257 (Melanoma); assay type: cell-based, human
[14] = system: DU-145; assay: NCI-60 growth inhibition: DU-145 (Prostate Cancer); assay type: cell-based, human
[15] = system: SF-539; assay: NCI-60 growth inhibition: SF-539 (CNS Cancer); assay type: cell-based, human
[16] = system: MV4-11 cell line (myelomonocytic leukemia); conditions: MV4-11 cells; for LD50, 7AAD (μM) 24 h / LD50, Alamar blue (μM) 24 h / LD50, YOPRO (μM) 24 h: MMB-TDZD analogs (Table 2); for LD50: values in text
[17] = system: SNB-75; assay: NCI-60 growth inhibition: SNB-75 (CNS Cancer); assay type: cell-based, human
[18] = system: NCI-H23; assay: NCI-60 growth inhibition: NCI-H23 (Non-Small-Cell Lung Cancer); assay type: cell-based, human
[19] = system: U251; assay: NCI-60 growth inhibition: U251 (CNS Cancer); assay type: cell-based, human
[20] = system: PC-3; assay: NCI-60 growth inhibition: PC-3 (Prostate Cancer); assay type: cell-based, human
[21] = system: NCI-H522; assay: NCI-60 growth inhibition: NCI-H522 (Non-Small-Cell Lung Cancer)
[22] = system: CCRF-CEM; assay: NCI-60 growth inhibition: CCRF-CEM (Leukemia); assay type: cell-based, human
[23] = system: OVCAR-5; assay: NCI-60 growth inhibition: OVCAR-5 (Ovarian Cancer); assay type: cell-based, human
[24] = system: ACHN; assay: NCI-60 growth inhibition: ACHN (Renal Cancer); assay type: cell-based, human
[25] = system: MDA-MB-231/ATCC; assay: NCI-60 growth inhibition: MDA-MB-231/ATCC (Breast Cancer); assay type: cell-based, human
[26] = system: MALME-3M; assay: NCI-60 growth inhibition: MALME-3M (Melanoma); assay type: cell-based, human
[27] = system: SK-MEL-5; assay: NCI-60 growth inhibition: SK-MEL-5 (Melanoma); assay type: cell-based, human
[28] = system: HCT-15; assay: NCI-60 growth inhibition: HCT-15 (Colon Cancer); assay type: cell-based, human
[29] = system: HCT-116; assay: NCI-60 growth inhibition: HCT-116 (Colon Cancer)
[30] = system: 786-0; assay: NCI-60 growth inhibition: 786-0 (Renal Cancer); assay type: cell-based, human
[31] = system: MCF7; assay: NCI-60 growth inhibition: MCF7 (Breast Cancer); assay type: cell-based, human
[32] = system: HT29; assay: NCI-60 growth inhibition: HT29 (Colon Cancer); assay type: cell-based, human
[33] = system: SF-268; assay: NCI-60 growth inhibition: SF-268 (CNS Cancer); assay type: cell-based, human
[34] = system: OVCAR-4; assay: NCI-60 growth inhibition: OVCAR-4 (Ovarian Cancer); assay type: cell-based, human
[35] = system: IGROV1; assay: NCI-60 growth inhibition: IGROV1 (Ovarian Cancer); assay type: cell-based, human
[36] = system: A498; assay: NCI-60 growth inhibition: A498 (Renal Cancer); assay type: cell-based, human
[37] = system: HS 578T; assay: NCI-60 growth inhibition: HS 578T (Breast Cancer); assay type: cell-based, human
[38] = system: COLO 205; assay: NCI-60 growth inhibition: COLO 205 (Colon Cancer); assay type: cell-based, human
[39] = system: SN12C; assay: NCI-60 growth inhibition: SN12C (Renal Cancer); assay type: cell-based, human
[40] = system: UACC-62; assay: NCI-60 growth inhibition: UACC-62 (Melanoma); assay type: cell-based, human
[41] = system: SK-MEL-2; assay: NCI-60 growth inhibition: SK-MEL-2 (Melanoma); assay type: cell-based, human
[42] = system: OVCAR-8; assay: NCI-60 growth inhibition: OVCAR-8 (Ovarian Cancer); assay type: cell-based, human
[43] = system: T-47D; assay: NCI-60 growth inhibition: T-47D (Breast Cancer); assay type: cell-based, human
[44] = system: NCI-H460; assay: NCI-60 growth inhibition: NCI-H460 (Non-Small-Cell Lung Cancer); assay type: cell-based, human
[45] = system: MOLT-4; assay: NCI-60 growth inhibition: MOLT-4 (Leukemia); assay type: cell-based, human
[46] = system: CAKI-1; assay: NCI-60 growth inhibition: CAKI-1 (Renal Cancer); assay type: cell-based, human
[47] = system: SR; assay: NCI-60 growth inhibition: SR (Leukemia); assay type: cell-based, human
[48] = system: RPMI-8226; assay: NCI-60 growth inhibition: RPMI-8226 (Leukemia); assay type: cell-based, human
[49] = system: EKVX; assay: NCI-60 growth inhibition: EKVX (Non-Small-Cell Lung Cancer); assay type: cell-based, human
[50] = system: M14; assay: NCI-60 growth inhibition: M14 (Melanoma); assay type: cell-based, human

C=C1C(=O)O[C@H]2[C@H]1CC/C(COC(=O)NCc1ccc(Cn3c(=O)sn(CCCCC)c3=O)cc1)=C\CC[C@@]1(C)O[C@@H]21 [BSK-218]
GI50 [1]: 1190 nM | GI50 [2]: 1850 nM | GI50 [3]: 5060 nM | GI50 [4]: 1710 nM | GI50 [5]: 1380 nM | GI50 [6]: 1910 nM | GI50 [7]: 1460 nM | GI50 [8]: 1590 nM | GI50 [9]: 1960 nM | GI50 [10]: 1100 nM | GI50 [11]: 1310 nM | GI50 [12]: 1410 nM | GI50 [13]: 1570 nM | GI50 [14]: 1680 nM | GI50 [15]: 1640 nM | LD50, 7AAD (μM) 24 h [16]: 1.3 µM | LD50, Alamar blue (μM) 24 h [16]: 0.8 µM | LD50, YOPRO (μM) 24 h [16]: 1.07 µM | LD50 [16]: 760 nM | GI50 [17]: 1590 nM | GI50 [18]: 1940 nM | GI50 [19]: 2200 nM | GI50 [20]: 1920 nM | GI50 ([21]; NCI-H522 (Non-Small-Cell Lung Cancer)): 1590 nM | GI50 [22]: 360 nM | GI50 [23]: 2010 nM | GI50 [24]: 1680 nM | GI50 [25]: 1720 nM | GI50 [26]: 1610 nM | GI50 [27]: 3920 nM | GI50 [28]: 1660 nM | GI50 ([29]; HCT-116 (Colon Cancer)): 1730 nM | GI50 [30]: 1980 nM | GI50 [31]: 1790 nM | GI50 [32]: 2090 nM | GI50 [33]: 1880 nM | GI50 [34]: 1620 nM | GI50 [35]: 2110 nM | GI50 [36]: 2910 nM | GI50 [37]: 2790 nM | GI50 [38]: 1780 nM | GI50 [39]: 1710 nM | GI50 [40]: 1590 nM | GI50 [41]: 2420 nM | GI50 [42]: 2260 nM | GI50 [43]: 1750 nM | GI50 [44]: 3420 nM | GI50 [45]: 5900 nM | GI50 [46]: 2840 nM | GI50 [47]: 2990 nM | GI50 [48]: 1120 nM | GI50 [49]: 1850 nM | GI50 [50]: 1890 nM

C=C1C(=O)O[C@H]2[C@H]1CC/C(COC(=O)NCc1ccc(Cn3c(=O)sn(-c4ccc(OC)cc4)c3=O)cc1)=C\CC[C@@]1(C)O[C@@H]21 [BSK-271]
GI50 ([1]; Homo sapiens): 1530 nM | GI50 ([2]; Homo sapiens): 1970 nM | GI50 ([3]; Homo sapiens): 11700 nM | GI50 ([4]; Homo sapiens): 1830 nM | GI50 ([5]; Homo sapiens): 1610 nM | GI50 ([6]; Homo sapiens): 4370 nM | GI50 ([7]; Homo sapiens): 1560 nM | GI50 ([8]; Homo sapiens): 1730 nM | GI50 ([9]; Homo sapiens): 1910 nM | GI50 ([10]; Homo sapiens): 2120 nM | GI50 ([11]; Homo sapiens): 1770 nM | GI50 ([12]; Homo sapiens): 1610 nM | GI50 ([13]; Homo sapiens): 2030 nM | GI50 ([14]; Homo sapiens): 1810 nM | GI50 ([15]; Homo sapiens): 1960 nM | LD50, 7AAD (μM) 24 h [16]: 1.74 µM | LD50, Alamar blue (μM) 24 h [16]: 1.20 µM | LD50, YOPRO (μM) 24 h [16]: 2.07 µM | LD50 [16]: 680 nM | GI50 ([17]; Homo sapiens): 3440 nM | GI50 ([18]; Homo sapiens): 2970 nM | GI50 ([19]; Homo sapiens, U-251): 4110 nM | GI50 ([20]; Homo sapiens): 2190 nM | GI50 ([21]; Homo sapiens, NCI-H522): 1670 nM | GI50 ([22]; Homo sapiens): 560 nM | GI50 ([23]; Homo sapiens): 2060 nM | GI50 ([24]; Homo sapiens): 1730 nM | GI50 ([25]; Homo sapiens): 1970 nM | GI50 ([26]; Homo sapiens): 1810 nM | GI50 ([27]; Homo sapiens): 12000 nM | GI50 ([28]; Homo sapiens): 1680 nM | GI50 ([29]; Homo sapiens, HCT-116): 1930 nM | GI50 ([30]; Homo sapiens): 2050 nM | GI50 ([31]; Homo sapiens): 1770 nM | GI50 ([32]; Homo sapiens, HT-29): 1960 nM | GI50 ([33]; Homo sapiens): 3140 nM | GI50 ([34]; Homo sapiens): 1640 nM | GI50 ([35]; Homo sapiens, IGROV-1): 2850 nM | GI50 ([36]; Homo sapiens): 5650 nM | GI50 ([37]; Homo sapiens): 2920 nM | GI50 ([38]; Homo sapiens): 1850 nM | GI50 ([39]; Homo sapiens): 2140 nM | GI50 ([40]; Homo sapiens): 1860 nM | GI50 ([41]; Homo sapiens): 3190 nM | GI50 ([42]; Homo sapiens): 2370 nM | GI50 ([43]; Homo sapiens, T47D): 1860 nM | GI50 ([44]; Homo sapiens): 3700 nM | GI50 ([45]; Homo sapiens): 1930 nM | GI50 ([46]; Homo sapiens): 2340 nM | GI50 ([47]; Homo sapiens): 530 nM | GI50 ([48]; Homo sapiens): 2010 nM | GI50 ([49]; Homo sapiens): 3500 nM | GI50 ([50]; Homo sapiens): 2190 nM

— patent US20230125667A1, “NOVEL TDZD ANALOGS AS AGENTS THAT DELAY, PREVENT, OR REVERSE AGE-ASSOCIATED DISEASES AND AS ANTI-CANCER AND ANTILEUKEMIC AGENTS” (United States Government as represented by the Department …, priority 2020, published 2023)
